# Assay results published in publication PMC5403886, “A Novel Spiro-Heterocyclic Compound Identified by the Silkworm Infection Model Inhibits Transcription in Staphylococcus aureus” (Frontiers in Microbiology, 2017).
# Target: T1, SigA (primary sigma factor of RNA polymerase) (Staphylococcus aureus, UniProt P0A0J0)
# T1 construct: His-tagged recombinant SigA (sigA from S. aureus RN4220, pET28a)
# Assay: pull-down with His-tagged SigA on cobalt magnetic beads, HPLC of eluted compound
# Assay type: binding
# T1 sequence (P0A0J0 whole entry): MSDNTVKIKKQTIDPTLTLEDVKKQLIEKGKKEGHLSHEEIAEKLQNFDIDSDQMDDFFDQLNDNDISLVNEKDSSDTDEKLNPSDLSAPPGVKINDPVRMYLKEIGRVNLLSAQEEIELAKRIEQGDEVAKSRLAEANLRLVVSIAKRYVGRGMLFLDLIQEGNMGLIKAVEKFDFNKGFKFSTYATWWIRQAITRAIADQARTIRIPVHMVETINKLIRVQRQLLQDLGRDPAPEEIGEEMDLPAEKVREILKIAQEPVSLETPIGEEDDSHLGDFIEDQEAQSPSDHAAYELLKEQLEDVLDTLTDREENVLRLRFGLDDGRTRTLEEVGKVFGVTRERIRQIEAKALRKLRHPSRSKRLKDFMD
compound,measurement,value
"CCCNC(=O)N1CCC2(CC1)Nc1cc(F)ccc1-n1cccc12 [GPI0363, 7-fluoro-N-propylspiro[5H-pyrrolo[1,2-a]quinoxaline-4,4′-piperidine]-1′-carboxamide]","pull-down with His-tagged SigA on cobalt magnetic beads, HPLC of eluted compound",The peak of GPI0363 appeared when mixed with SigA whereas the peak was not observed when SigA was omitted
